According to paper PMC11589570, “Critical assessment of LC3/GABARAP ligands used for degrader development and ligandability of LC3/GABARAP binding pockets” (Nature Communications, 2024):
Where “and” joins values, the source holds several entries; their conditions need not be identical. Equal entries are not always repeated.

Legend:
RPE1 cells = assay: Cell growth assay (IncuCyte confluence over 72 h); type: cell-based
Description: Cell growth assay: Cell confluence (phase) from RPE1 (hTERT RPE-1, ATCC CLR_4000) or U2OS (ATCC, HTB-96) cell lines were monitored over time with the IncuCyte S3 (Sartiorius, Germany) in 384-well plates in 50 ul DMEM media, supplemented with 10% Fetal Bovine Serum (FBS) 1% penicillin/Streptomycin and incubated 24 h before treatment. Experiment was performed as described in Cano-Franco et al.. 50 μl of media containing either 2× final concentration of indicated compounds in or control compounds (final conc.: 0.1% DMSO, 250 nM Torin1, 200 ng/mL Bafilomycin) were added and images were taken every two hours over 72 h. Cell confluence is represented as % of area covered by cells. Each data point represents the average ratio or confluence obtained from three individual wells of the plate.

LC3B = LC3B (Homo sapiens, UniProt Q9GZQ8); assay: FP assay with Cy5-labelled p62 LIR tracer (protein titration and tracer displacement); type: binding; settings: replicates, listed as TH152
[1] = system: RPE-1 GFP-LC3B-RPF-LC3∆G reporter cell line; assay: Autophagy flux assay; type: cell-based; settings: rebuttal letter
Source text: LC3/GABARAP in vitro, but no attempts are made to replicate the previously reported cellular activity of these compounds. It would be beneficial to know whether these compounds have any effect on autophagy in the authors’ hands, and therefore could act by alternative mechanisms, or whether they […]
Response: We were very concerned that the ligands used for ATTEC development might induce general toxicity in cell lines, as they are based on drugs used in oncology (such as the kinesin inhibitor 10O5) and the isoxazole scaffold often used in the development of multi-targeted kinase inhibitors. However, we have now investigated compounds 1-4 in autophagy flux assays using the RPE-1 GFP-LC3B-RPF-LC3∆G reporter cell line (single clone) as […]
reported in [PMID:37558952].
(RR_Figure 6). The authors of the first manuscript reporting these ligands [PMID: 31666698]
However, due to the potent activity of 8F20 on KIF11, which will have profound effects on cell trafficking and growth, and DCAF11 (AN1, [PMID: 38036533]), we find it unlikely that the effects on autophagy are due to LC3/GABARAP modulation. Due to the lack of target (LC3/GABARAP) binding in vitro and the […]
of this review but have excluded the data in the manuscript.
RR_figure 5: Autophagy flux measurement for 10O5 and AN2. No induction of autophagy or effects (right panels, assessed by Incucyte (Sartorius) life cell imaging) on cell growth was […]
RR_figure 6: Autophagy flux measurement for 8F20 and AN1 show changes in autophagy flux […]
It is not clear how many biological replicates have been performed. For example, the figure legends […]

With `CO[C@@H]1[C@@H](OC(N)=O)[C@@H](O)[C@H](Oc2ccc3c(O)c(NC(=O)c4ccc(O)c(CC=C(C)C)c4)c(=O)oc3c2C)OC1(C)C` [compound 12, Novobiocin] the RPE1 cell growth (RPE1 cells; 100 nM, 0 h) was 25 and 15, the RPE1 cell growth (RPE1 cells; 100 nM, 2 h) was 26 and 15 and 17 and the RPE1 cell growth (RPE1 cells; 100 nM, 4 h) was 29 and 17 and 18. The RPE1 cell growth (RPE1 cells; 100 nM, 6 h) was 30 and 18, the RPE1 cell growth (RPE1 cells; 100 nM, 8 h) was 33 and 18 and 20 and the RPE1 cell growth (RPE1 cells; 100 nM, 10 h) was 36 and 19 and 21. For the same compound, the RPE1 cell growth (RPE1 cells; 500 nM, 0 h) was 27 and 16 and 18, the RPE1 cell growth (RPE1 cells; 500 nM, 2 h) was 32 and 16 and 20 and the RPE1 cell growth (RPE1 cells; 500 nM, 4 h) was 32 and 18 and 22. The RPE1 cell growth (RPE1 cells; 500 nM, 6 h) was 35 and 18 and 22, the RPE1 cell growth (RPE1 cells; 500 nM, 8 h) was 38 and 20 and 23 and the RPE1 cell growth (RPE1 cells; 500 nM, 10 h) was 39 and 21. The RPE1 cell growth (RPE1 cells; 1 uM, 0 h) was 18 and 23 and 20, the RPE1 cell growth (RPE1 cells; 1 uM, 2 h) was 20 and 26 and 21 and the RPE1 cell growth (RPE1 cells; 1 uM, 4 h) was 22 and 28 and 21. For the same compound, the RPE1 cell growth (RPE1 cells; 1 uM, 6 h) was 23 and 32, the RPE1 cell growth (RPE1 cells; 1 uM, 8 h) was 26 and 35 and 25 and the RPE1 cell growth (RPE1 cells; 1 uM, 10 h) was 27. For the same compound, the RPE1 cell growth (RPE1 cells; 3 uM, 0 h) was 27 and 19 and 22, the RPE1 cell growth (RPE1 cells; 3 uM, 2 h) was 31 and 19 and 24 and the RPE1 cell growth (RPE1 cells; 3 uM, 4 h) was 33 and 20 and 27. For the same compound, the RPE1 cell growth (RPE1 cells; 3 uM, 6 h) was 37 and 22 and 28, the RPE1 cell growth (RPE1 cells; 3 uM, 8 h) was 41 and 24 and 30 and the RPE1 cell growth (RPE1 cells; 3 uM, 10 h) was 40 and 26 and 31. The RPE1 cell growth (RPE1 cells; 5 uM, 0 h) was 24 and 20, the RPE1 cell growth (RPE1 cells; 5 uM, 2 h) was 28 and 22 and 24 and the RPE1 cell growth (RPE1 cells; 5 uM, 4 h) was 31 and 22 and 26. For the same compound, the RPE1 cell growth (RPE1 cells; 5 uM, 6 h) was 34 and 23 and 27, the RPE1 cell growth (RPE1 cells; 5 uM, 8 h) was 36 and 26 and 28 and the RPE1 cell growth (RPE1 cells; 5 uM, 10 h) was 35 and 26 and 30. For the same compound, the RPE1 cell growth (RPE1 cells; 10 uM, 0 h) was 22 and 24 and 16, the RPE1 cell growth (RPE1 cells; 10 uM, 2 h) was 24 and 19 and the RPE1 cell growth (RPE1 cells; 10 uM, 4 h) was 26 and 24 and 20. The RPE1 cell growth (RPE1 cells; 10 uM, 6 h) was 29 and 25 and 23, the RPE1 cell growth (RPE1 cells; 10 uM, 8 h) was 32 and 28 and 23 and the RPE1 cell growth (RPE1 cells; 10 uM, 10 h) was 32 and 28 and 26.
In the case of `CCCCCCC(Sc1nc(Cl)cc(Nc2nc(-c3ccc(C(=O)O)cc3)cs2)n1)C(=O)O` (stereo not drawn) [compound 21], the “FP assay result (normalised FP signal)” value (LC3B; log10 concentration [M] -3.5) is reported as 5.227 and 1.651 and 6.602 and 11.5543, the “FP assay result (normalised FP signal)” value (LC3B; log10 concentration [M] -4) is reported as 15.956 and 18.4319 and 23.3838 and 18.9821 and the “FP assay result (normalised FP signal)” value (LC3B; log10 concentration [M] -4.5) is reported as 38.7895 and 39.3398 and 43.1912 and 47.3177. The “FP assay result (normalised FP signal)” value (LC3B; log10 concentration [M] -5) was 78.6795 and 79.2297 and 89.1334 and 88.033, the “FP assay result (normalised FP signal)” value (LC3B; log10 concentration [M] -5.5) was 90.5089 and 85.8322 and 98.2118 and 94.9106 and the “FP assay result (normalised FP signal)” value (LC3B; log10 concentration [M] -6) was 92.7098 and 95.4608 and 102.063 and 101.238. For the same compound, the “FP assay result (normalised FP signal)” value (LC3B; log10 concentration [M] -6.5) was 91.0591 and 89.9587 and 97.9367 and 96.8363, the “FP assay result (normalised FP signal)” value (LC3B; log10 concentration [M] -7) was 91.6094 and 98.762 and 103.439 and 102.063 and the “FP assay result (normalised FP signal)” value (LC3B; log10 concentration [M] -7.5) was 90.2338 and 98.4869 and 99.3122 and 100.138. The “FP assay result (normalised FP signal)” value (LC3B; log10 concentration [M] -8) was 98.762 and 98.2118 and 100.413 and 102.613 and the “FP assay result (normalised FP signal)” value (LC3B; log10 concentration [M] -8.5) was 94.9106 and 100.413 (2×) and 103.439.
With `O=c1cc(-c2ccccc2)c2c(O)cc(O)cc2o1` [compound 2] the “autophagy induction (autophagy flux)” value [1] was “did not induce autophagy”, the “effects on cell growth (Incucyte life cell imaging)” value [1] was “No induction of autophagy or effects” and the RPE1 cell growth (RPE1 cells; 100 nM, 0 h, listed as AN2) was 20 and 12 and 15. The RPE1 cell growth (RPE1 cells; 100 nM, 2 h, listed as AN2) was 24 and 13 and 16, the RPE1 cell growth (RPE1 cells; 100 nM, 4 h, listed as AN2) was 26 and 14 and 18 and the RPE1 cell growth (RPE1 cells; 100 nM, 6 h, listed as AN2) was 28 and 15 and 18. The RPE1 cell growth (RPE1 cells; 100 nM, 8 h, listed as AN2) was 30 and 15 and 19, the RPE1 cell growth (RPE1 cells; 100 nM, 10 h, listed as AN2) was 32 and 17 and the RPE1 cell growth (RPE1 cells; 500 nM, 0 h, listed as AN2) was 22 and 20. The RPE1 cell growth (RPE1 cells; 500 nM, 2 h, listed as AN2) was 27 and 18 and 21, the RPE1 cell growth (RPE1 cells; 500 nM, 4 h, listed as AN2) was 29 and 19 and 24 and the RPE1 cell growth (RPE1 cells; 500 nM, 6 h, listed as AN2) was 32 and 20 and 24. For the same compound, the RPE1 cell growth (RPE1 cells; 500 nM, 8 h, listed as AN2) was 35 and 21 and 25, the RPE1 cell growth (RPE1 cells; 1 uM, 0 h, listed as AN2) was 17 and 22 and 23 and the RPE1 cell growth (RPE1 cells; 1 uM, 2 h, listed as AN2) was 19 and 26 and 23. The RPE1 cell growth (RPE1 cells; 1 uM, 4 h, listed as AN2) was 22 and 28 and 26, the RPE1 cell growth (RPE1 cells; 1 uM, 6 h, listed as AN2) was 22 and 31 and 24 and the RPE1 cell growth (RPE1 cells; 1 uM, 8 h, listed as AN2) was 24 and 34 and 27. For the same compound, the RPE1 cell growth (RPE1 cells; 1 uM, 10 h, listed as AN2) was 25, the RPE1 cell growth (RPE1 cells; 3 uM, 0 h, listed as AN2) was 24 and 21 and 19 and the RPE1 cell growth (RPE1 cells; 3 uM, 2 h, listed as AN2) was 30 and 22 and 21. The RPE1 cell growth (RPE1 cells; 3 uM, 4 h, listed as AN2) was 32 and 21 and 24, the RPE1 cell growth (RPE1 cells; 3 uM, 6 h, listed as AN2) was 36 and 22 and 26 and the RPE1 cell growth (RPE1 cells; 3 uM, 8 h, listed as AN2) was 39 and 24 and 26. For the same compound, the RPE1 cell growth (RPE1 cells; 3 uM, 10 h, listed as AN2) was 39 and 27 and 28, the RPE1 cell growth (RPE1 cells; 5 uM, 0 h, listed as AN2) was 22 and 21 and the RPE1 cell growth (RPE1 cells; 5 uM, 2 h, listed as AN2) was 28 and 21 and 24. The RPE1 cell growth (RPE1 cells; 5 uM, 4 h, listed as AN2) was 32 and 22 and 27, the RPE1 cell growth (RPE1 cells; 5 uM, 6 h, listed as AN2) was 35 and 24 and 29 and the RPE1 cell growth (RPE1 cells; 5 uM, 8 h, listed as AN2) was 37 and 24 and 30. The RPE1 cell growth (RPE1 cells; 5 uM, 10 h, listed as AN2) was 38 and 26 and 32, the RPE1 cell growth (RPE1 cells; 10 uM, 0 h, listed as AN2) was 27 and 24 and 19 and the RPE1 cell growth (RPE1 cells; 10 uM, 2 h, listed as AN2) was 31 and 27 and 22. The RPE1 cell growth (RPE1 cells; 10 uM, 4 h, listed as AN2) was 34 and 26 and 24, the RPE1 cell growth (RPE1 cells; 10 uM, 6 h, listed as AN2) was 37 and 25 and 26 and the RPE1 cell growth (RPE1 cells; 10 uM, 8 h, listed as AN2) was 40 and 29 and 27. For the same compound, the RPE1 cell growth (RPE1 cells; 10 uM, 10 h, listed as AN2) was 42 and 31 and 30.
